Experimental data: ChEMBL document CHEMBL1201862, “PubChem BioAssay data set” (2004)
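Exposure lasted 48 hours, with cells grown in 96-well plates and compounds tested at five concentrations. Here, GI50 denotes the concentration required for 50% inhibition of growth.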 Activity calls are given as the source filed them. Rule as the data show it: active = GI50 up to about 1.1 µM and inactive = higher.

Experiments:
Assay in all cases: NCI-60 cell line screen, 48 h
[1] = tested on: CCRF-CEM
[2] = tested on: HT-29
[3] = tested on: Hs-578T
[4] = tested on: IGROV-1
[5] = tested on: K562
[6] = tested on: KM12
[7] = tested on: NCI-H522
[8] = tested on: NCI/ADR-RES
[9] = tested on: OVCAR-3
[10] = tested on: PC-3
[11] = tested on: RPMI-8226
[12] = tested on: SN12C
[13] = tested on: SW-620
[14] = tested on: U-251
[15] = tested on: UACC-62
[16] = tested on: UO-31
[17] = tested on: COLO 205
[18] = tested on: SK-MEL-2
[19] = tested on: SK-OV-3

Structure (SMILES)	GI50 [1]	GI50 [2]	GI50 [3]	GI50 [4]	GI50 [5]	GI50 [6]	GI50 [7]	GI50 [8]	GI50 [9]	GI50 [10]	GI50 [11]	GI50 [12]	GI50 [13]	GI50 [14]	GI50 [15]	GI50 [16]	GI50 [17]	GI50 [18]	GI50 [19]
CCOC(=O)C1CCC(=O)N1C(=O)c1ccccc1Cl (centres undefined)	> 100 µM (inactive)	> 100 µM (inactive)	> 100 µM (inactive)	> 100 µM (inactive)	> 100 µM (inactive)	> 100 µM (inactive)	> 100 µM (inactive)	> 100 µM (inactive)	> 100 µM (inactive)	> 100 µM (inactive)	> 100 µM (inactive)	> 100 µM (inactive)	> 100 µM (inactive)	> 100 µM (inactive)	27.4 µM (inactive)	> 100 µM (inactive)			
C/C=C(\C)c1cc(=O)c2c(C)cc3c(c2o1)C(OC)(OC(C)=O)c1c(O)c(C2CC(C)(N(C)C)C(OC(C)=O)C(C)O2)cc(C2CC(N(C)C)C(OC(C)=O)C(C)O2)c1C3=O (centres undefined)	0.419 µM (active)	0.489 µM (active)	1.16 µM (inactive)	1.61 µM (inactive)	0.239 µM (active)	1.14 µM (inactive)	0.254 µM (active)	1.75 µM (inactive)	2.28 µM (inactive)	1.16 µM (inactive)		0.893 µM (active)	0.237 µM (active)	0.914 µM (active)	1.22 µM (inactive)	1.57 µM (inactive)	1.24 µM (inactive)	2.18 µM (inactive)	2.75 µM (inactive)
Cc1oc2c(c1C)S(=O)(=O)C(C#N)=C(c1ccccc1)N2		> 100 µM (inactive)	> 100 µM (inactive)	> 100 µM (inactive)	> 100 µM (inactive)	> 100 µM (inactive)	> 100 µM (inactive)	> 100 µM (inactive)	> 100 µM (inactive)	> 100 µM (inactive)	> 100 µM (inactive)	> 100 µM (inactive)	> 100 µM (inactive)	> 100 µM (inactive)	> 100 µM (inactive)	> 100 µM (inactive)	> 100 µM (inactive)	> 100 µM (inactive)	> 100 µM (inactive)
CCOC(=O)CC1(O)CCCCC1(Sc1ccc(C)cc1)Sc1ccc(C)cc1 (centres undefined)	4.76 µM (inactive)	32.2 µM (inactive)	25.4 µM (inactive)		41.5 µM (inactive)	44.2 µM (inactive)	18.7 µM (inactive)	65.9 µM (inactive)	55.5 µM (inactive)	33.3 µM (inactive)		39.4 µM (inactive)	62.4 µM (inactive)	33.7 µM (inactive)	92 µM (inactive)	41.8 µM (inactive)	42.2 µM (inactive)	20.5 µM (inactive)	> 100 µM (inactive)
